Measurements: patent publication US9018388B2, “Pesticidal compositions and processes related thereto” (Dow AgroSciences LLC, priority 2012, dated 2015)

Assays:
[1] = test system: Corn Earworm (CEW) (Helicoverpa zea); assay: Bioassay on corn earworm (CEW), 128-well diet tray assay; type: in vivo; conditions: Helicoverpa zea; Corn earworm, 50 μg/cm^2; read-out: % Mortality CEW 50 μg/cm^2
Method: (§1) Bioassays on Beet Armyworm (“BAW”) and Corn Earworm (“CEW”)
(§2) Certain molecules disclosed in this document were tested against BAW and CEW using procedures described in the following examples. In the reporting of the results, the “BAW & CEW Rating Table” was used (See Table Section).
Bioassays on CEW (Helicoverpa zea)
Bioassays on CEW were conducted using a 128-well diet tray assay. One to five second instar CEW larvae were placed in each well (3 mL) of the diet tray that had been previously filled with 1 mL of artificial diet to which 50 μg/cm^2 of the test compound (dissolved in 50 μL of 90:10 acetone-water mixture) had been applied (to each of eight wells) and then allowed to dry. Trays were covered with a clear self-adhesive cover and held at 25° C., 14:10 light-dark for five to seven days. Percent mortality was recorded for the larvae in each well; activity in the eight wells was then averaged. The results are indicated in the table entitled “Table 5: Biological Results” (See Table Section).

[2] = test system: Beet Armyworm (BAW) (Spodoptera exigua); assay: Bioassay on beet armyworm (BAW), 128-well diet tray assay; type: in vivo; conditions: Spodoptera exigua; Beet armyworm, 50 μg/cm^2; read-out: % Mortality BAW 50 μg/cm^2
Method: as §1, §2
Bioassays on BAW (Spodoptera exigua)
Bioassays on BAW were conducted using a 128-well diet tray assay. One to five second instar BAW larvae were placed in each well (3 mL) of the diet tray that had been previously filled with 1 mL of artificial diet to which 50 μg/cm^2 of the test compound (dissolved in 50 μL of 90:10 acetone-water mixture) had been applied (to each of eight wells) and then allowed to dry. Trays were covered with a clear self-adhesive cover and held at 25° C., 14:10 light-dark for five to seven days. Percent mortality was recorded for the larvae in each well; activity in the eight wells was then averaged. The results are indicated in the table entitled “Table 5: Biological Results” (See Table Section).

CCC1CS/C(=N\N=C\c2ccc(-c3ncn(-c4ccc(OC(F)(F)F)cc4)n3)cc2)N1c1ccccc1C (stereo not shown) [Compound 166C]
pest or weed control at 50 µg/cm2, 50 µg/cm2 [1]: 50 to 100% | pest or weed control at 50 µg/cm2, 50 µg/cm2 [2]: 50 to 100%

Cc1cc(C)c(N2/C(=N/N=C/c3ccc(-c4ncn(-c5ccc(OC(F)(F)F)cc5)n4)cc3)SCC2C)c(C)c1 (stereo not shown) [Compound 161C]
pest or weed control at 50 µg/cm2, 50 µg/cm2 [1]: 50 to 100% | pest or weed control at 50 µg/cm2, 50 µg/cm2 [2]: 50 to 100%

Cc1cccc(C)c1N1CS/C1=N\N=C\c1ccc(-c2ncn(-c3ccc(OC(F)(F)F)cc3)n2)cc1 [Compound 241C]
pest or weed control at 50 µg/cm2, 50 µg/cm2 [1]: 50 to 100% | pest or weed control at 50 µg/cm2, 50 µg/cm2 [2]: 50 to 100%

CC(C)c1ccccc1N1CS/C1=N\N=C\c1ccc(-c2ncn(-c3ccc(OC(F)(F)C(F)(F)F)cc3)n2)cc1 [Compound 247C]
pest or weed control at 50 µg/cm2, 50 µg/cm2 [1]: 50 to 100% | pest or weed control at 50 µg/cm2, 50 µg/cm2 [2]: 50 to 100%

CCS/C(=N\c1c(Cl)cccc1Cl)N/N=C/c1ccc(-c2ncn(-c3ccc(OC(F)(F)F)cc3)n2)cc1 [Compound 2C]
pest or weed control at 50 µg/cm2, 50 µg/cm2 [1]: 50 to 100% | pest or weed control at 50 µg/cm2, 50 µg/cm2 [2]: 50 to 100%

C/C(=N\N=C1/SCN1c1ccccc1C(C)C)c1ccc(-c2ncn(-c3ccc(OC(F)(F)F)cc3)n2)cc1 [Compound 248C]
pest or weed control at 50 µg/cm2, 50 µg/cm2 [1]: 50 to 100% | pest or weed control at 50 µg/cm2, 50 µg/cm2 [2]: 50 to 100%

COc1ccc(/N=C(/N/N=C/c2ccc(-c3ncn(-c4ccc(OC(F)(F)C(F)(F)F)cc4)n3)cc2)SCC(=O)O)c(C)c1 [Compound 50C]
pest or weed control at 50 µg/cm2, 50 µg/cm2 [1]: 50 to 100% | pest or weed control at 50 µg/cm2, 50 µg/cm2 [2]: 50 to 100%

Fc1cccc(F)c1N1CCS/C1=N\N=C\c1ccc(-c2ncn(-c3ccc(OC(F)(F)F)cc3)n2)cc1 [Compound 148C]
pest or weed control at 50 µg/cm2, 50 µg/cm2 [1]: 50 to 100% | pest or weed control at 50 µg/cm2, 50 µg/cm2 [2]: 50 to 100%

Cc1ccccc1N1C(=O)CS/C1=N\N=C\c1ccc(-c2ncn(-c3ccc(OC(F)(F)F)cc3)n2)cc1 [Compound 113C]
pest or weed control at 50 µg/cm2, 50 µg/cm2 [1]: 50 to 100% | pest or weed control at 50 µg/cm2, 50 µg/cm2 [2]: 50 to 100%

Cc1cccc(C)c1-n1c(C)cs/c1=N\N=C\c1ccc(-c2ncn(-c3ccc(OC(F)(F)F)cc3)n2)cc1 [Compound 175C]
pest or weed control at 50 µg/cm2, 50 µg/cm2 [1]: 50 to 100% | pest or weed control at 50 µg/cm2, 50 µg/cm2 [2]: 50 to 100%

Cc1cccc(C)c1/N=C(/N/N=C/c1ccc(-c2ncn(-c3ccc(OC(F)(F)F)cc3)n2)cc1)SCc1ccccc1F [Compound 11C]
pest or weed control at 50 µg/cm2, 50 µg/cm2 [1]: 50 to 100% | pest or weed control at 50 µg/cm2, 50 µg/cm2 [2]: 50 to 100%

Cc1cccc(C)c1/N=C(/N/N=C/c1ccc(-c2ncn(-c3ccc(OC(F)(F)F)cc3)n2)cc1)SCc1ccccc1 [Compound 10C]
pest or weed control at 50 µg/cm2, 50 µg/cm2 [1]: 50 to 100% | pest or weed control at 50 µg/cm2, 50 µg/cm2 [2]: 50 to 100%

COc1cc(C)c(/N=C(/N/N=C/c2ccc(-c3ncn(-c4ccc(OC(F)(F)F)cc4)n3)cc2)SCOC(=O)C(C)OCC(F)(F)F)c(C)c1 (stereo not shown) [Compound 38C]
pest or weed control at 50 µg/cm2, 50 µg/cm2 [1]: 50 to 100% | pest or weed control at 50 µg/cm2, 50 µg/cm2 [2]: 50 to 100%

COc1cc(C)c(/N=C(\N/N=C/c2ccc(-c3ncn(-c4ccc(C(F)(F)F)cc4)n3)cc2)SCOC(=O)C(C)C)c(C)c1 [Compound 46C]
pest or weed control at 50 µg/cm2, 50 µg/cm2 [1]: 50 to 100% | pest or weed control at 50 µg/cm2, 50 µg/cm2 [2]: 50 to 100%

Cc1cccc(C)c1/N=C(/N/N=C/c1ccc(-c2ncn(-c3ccc(OC(F)(F)F)cc3)n2)cc1)SCOC(=O)CNC(=O)OCc1ccccc1 [Compound 23C]
pest or weed control at 50 µg/cm2, 50 µg/cm2 [1]: 50 to 100% | pest or weed control at 50 µg/cm2, 50 µg/cm2 [2]: 50 to 100%

Cc1cnccc1N1C(=O)CS/C1=N\N=C\c1ccc(-c2ncn(-c3ccc(OC(F)(F)F)cc3)n2)cc1 [Compound 118C]
pest or weed control at 50 µg/cm2, 50 µg/cm2 [1]: 50 to 100% | pest or weed control at 50 µg/cm2, 50 µg/cm2 [2]: 50 to 100%

CC1CCS/C(=N\N=C\c2ccc(-c3ncn(-c4ccc(OC(F)(F)F)cc4)n3)cc2)N1c1ccccc1OC(F)F (stereo not shown) [Compound 221C]
pest or weed control at 50 µg/cm2, 50 µg/cm2 [1]: 50 to 100% | pest or weed control at 50 µg/cm2, 50 µg/cm2 [2]: 50 to 100%

COc1cc(C)c(N2CS/C2=N\N=C\c2ccc(-c3ncn(-c4ccc(OC(F)(F)F)cc4)n3)cc2)c(C)c1 [Compound 242C]
pest or weed control at 50 µg/cm2, 50 µg/cm2 [1]: 50 to 100% | pest or weed control at 50 µg/cm2, 50 µg/cm2 [2]: 50 to 100%

CCOc1ccccc1N1CCCS/C1=N\N=C\c1ccc(-c2ncn(-c3ccc(OC(F)(F)F)cc3)n2)cc1 [Compound 208C]
pest or weed control at 50 µg/cm2, 50 µg/cm2 [1]: 50 to 100% | pest or weed control at 50 µg/cm2, 50 µg/cm2 [2]: 50 to 100%

CCOc1cccc(OCC)c1N1C(=O)CS/C1=N\N=C\c1ccc(-c2ncn(-c3ccc(OC(F)(F)F)cc3)n2)cc1 [Compound 98C]
pest or weed control at 50 µg/cm2, 50 µg/cm2 [2]: 50 to 100%

CC(F)(F)Oc1ccccc1N1C(=O)CCS/C1=N\N=C\c1ccc(-c2ncn(-c3ccc(OC(F)(F)F)cc3)n2)cc1 [Compound 229C]
pest or weed control at 50 µg/cm2, 50 µg/cm2 [1]: 50 to 100% | pest or weed control at 50 µg/cm2, 50 µg/cm2 [2]: 50 to 100%

CC1CS/C(=N\N=C\c2ccc(-c3ncn(-c4ccc(OC(F)(F)F)cc4)n3)cc2)N1c1c(Cl)cccc1C(F)(F)F (stereo not shown) [Compound 160C]
pest or weed control at 50 µg/cm2, 50 µg/cm2 [1]: 50 to 100% | pest or weed control at 50 µg/cm2, 50 µg/cm2 [2]: 50 to 100%

CC(C)(C)c1ccccc1N1CCCS/C1=N\N=C\c1ccc(-c2ncn(-c3ccc(OC(F)(F)F)cc3)n2)cc1 [Compound 210C]
pest or weed control at 50 µg/cm2, 50 µg/cm2 [1]: 50 to 100% | pest or weed control at 50 µg/cm2, 50 µg/cm2 [2]: 50 to 100%

CCc1cccc(C)c1N1C(=O)CCS/C1=N\N=C\c1ccc(-c2ncn(-c3ccc(OC(F)(F)F)cc3)n2)cc1 [Compound 225C]
pest or weed control at 50 µg/cm2, 50 µg/cm2 [1]: 50 to 100% | pest or weed control at 50 µg/cm2, 50 µg/cm2 [2]: 50 to 100%

CC1CS/C(=N\N=C\c2ccc(-c3ncn(-c4ccc(OC(F)(F)F)cc4)n3)cc2)N(c2c(Cl)cccc2C(F)(F)F)C1 (stereo not shown) [Compound 215C]
pest or weed control at 50 µg/cm2, 50 µg/cm2 [1]: 50 to 100% | pest or weed control at 50 µg/cm2, 50 µg/cm2 [2]: 50 to 100%

Cc1cccc(C)c1N1CCCCS/C1=N\N=C\c1ccc(-c2ncn(-c3ccc(OC(F)(F)F)cc3)n2)cc1 [Compound 211C]
pest or weed control at 50 µg/cm2, 50 µg/cm2 [1]: 50 to 100% | pest or weed control at 50 µg/cm2, 50 µg/cm2 [2]: 50 to 100%

COc1ccc(N2/C(=N/N=C/c3ccc(-c4ncn(-c5ccc(OC(F)(F)F)cc5)n4)cc3)SCC2C)c(C)c1 (stereo not shown) [Compound 162C]
pest or weed control at 50 µg/cm2, 50 µg/cm2 [1]: 50 to 100% | pest or weed control at 50 µg/cm2, 50 µg/cm2 [2]: 50 to 100%

COc1cc(C)c(N2C(=O)CS/C2=N\N=C\c2ccc(-c3ncn(-c4ccc(OC(F)(F)F)cc4)n3)cc2)c(C)n1 [Compound 101C]
pest or weed control at 50 µg/cm2, 50 µg/cm2 [1]: 50 to 100% | pest or weed control at 50 µg/cm2, 50 µg/cm2 [2]: 50 to 100%

CC(C)c1ccccc1N1CCCS/C1=N\N=C\c1ccc(-c2ncn(-c3ccc(C(F)(F)F)cc3)n2)cc1 [Compound 179C]
pest or weed control at 50 µg/cm2, 50 µg/cm2 [1]: 50 to 100% | pest or weed control at 50 µg/cm2, 50 µg/cm2 [2]: 50 to 100%

FC(F)(F)Oc1ccc(-n2cnc(-c3ccc(/C=N/N=C4\SCCN4c4c(Cl)cccc4C(F)(F)F)cc3)n2)cc1 [Compound 149C]
pest or weed control at 50 µg/cm2, 50 µg/cm2 [1]: 50 to 100% | pest or weed control at 50 µg/cm2, 50 µg/cm2 [2]: 50 to 100%

O=C1CCS/C(=N\N=C\c2ccc(-c3ncn(-c4ccc(OC(F)(F)F)cc4)n3)cc2)N1c1ccccc1OC(F)F [Compound 233C]
pest or weed control at 50 µg/cm2, 50 µg/cm2 [1]: 50 to 100% | pest or weed control at 50 µg/cm2, 50 µg/cm2 [2]: 50 to 100%

FC(F)(F)Oc1ccc(-n2cnc(-c3ccc(/C=N/N=C4\SCCN4c4ccccc4OC(F)(F)F)cc3)n2)cc1 [Compound 153C]
pest or weed control at 50 µg/cm2, 50 µg/cm2 [1]: 50 to 100%

Cc1cccc(C)c1/N=C(/N/N=C/c1ccc(-c2ncn(-c3ccc(OC(F)(F)F)cc3)n2)cc1)SCc1ccc(F)cc1F [Compound 7C]
pest or weed control at 50 µg/cm2, 50 µg/cm2 [1]: 50 to 100%

COc1ccc(N2C(=O)CS/C2=N\N=C\c2ccc(-c3ncn(-c4ccc(OC(F)(F)F)cc4)n3)cc2)cc1 [Compound 115C]
pest or weed control at 50 µg/cm2, 50 µg/cm2 [2]: 0 to 50%
